Source: patent publication US20120122860A1, “SOLID FORMS OF SULFONAMIDES AND AMINO ACIDS” (Plexxikon, Inc., priority 2009, published 2012)

Key:
Kit = Kit (Homo sapiens, UniProt P10721); experiment: Kinase activity assay, Kit
Kdr = Kdr (Homo sapiens, UniProt P35968); experiment: Kinase activity assay, Kdr
B-Raf V600E = B-Raf V600E (Homo sapiens, UniProt P15056, V600E); experiment: Kinase activity assay, B-Raf V600E; assay type: biochemical; conditions: read-out: activity toward kinase B-Raf V600E, IC50
Sequence of B-Raf V600E (P15056 whole entry V600E): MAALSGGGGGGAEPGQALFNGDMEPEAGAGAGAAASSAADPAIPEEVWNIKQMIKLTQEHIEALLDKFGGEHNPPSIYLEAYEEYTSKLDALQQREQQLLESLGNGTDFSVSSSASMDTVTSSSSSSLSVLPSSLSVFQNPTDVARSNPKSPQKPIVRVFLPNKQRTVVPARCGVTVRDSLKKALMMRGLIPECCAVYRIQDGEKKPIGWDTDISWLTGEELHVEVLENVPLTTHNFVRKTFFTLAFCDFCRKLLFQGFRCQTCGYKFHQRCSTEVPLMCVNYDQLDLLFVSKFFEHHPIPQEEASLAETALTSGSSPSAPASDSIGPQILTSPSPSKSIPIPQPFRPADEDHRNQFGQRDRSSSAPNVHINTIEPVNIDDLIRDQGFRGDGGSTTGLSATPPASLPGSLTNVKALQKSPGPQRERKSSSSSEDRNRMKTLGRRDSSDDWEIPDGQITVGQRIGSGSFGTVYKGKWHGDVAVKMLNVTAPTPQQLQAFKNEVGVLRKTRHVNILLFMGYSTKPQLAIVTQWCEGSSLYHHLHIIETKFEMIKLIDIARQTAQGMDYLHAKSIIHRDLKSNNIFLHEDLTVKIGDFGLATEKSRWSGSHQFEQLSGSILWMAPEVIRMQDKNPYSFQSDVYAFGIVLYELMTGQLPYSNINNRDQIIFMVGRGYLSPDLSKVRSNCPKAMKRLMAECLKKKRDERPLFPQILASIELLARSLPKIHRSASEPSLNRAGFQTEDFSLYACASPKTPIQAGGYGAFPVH

C-Raf = C-Raf (Homo sapiens, UniProt P04049); experiment: Kinase activity assay, C-Raf
Fms = Fms (Homo sapiens, UniProt P07333); experiment: Kinase activity assay, Fms
Sequence of Fms (P07333 20-972): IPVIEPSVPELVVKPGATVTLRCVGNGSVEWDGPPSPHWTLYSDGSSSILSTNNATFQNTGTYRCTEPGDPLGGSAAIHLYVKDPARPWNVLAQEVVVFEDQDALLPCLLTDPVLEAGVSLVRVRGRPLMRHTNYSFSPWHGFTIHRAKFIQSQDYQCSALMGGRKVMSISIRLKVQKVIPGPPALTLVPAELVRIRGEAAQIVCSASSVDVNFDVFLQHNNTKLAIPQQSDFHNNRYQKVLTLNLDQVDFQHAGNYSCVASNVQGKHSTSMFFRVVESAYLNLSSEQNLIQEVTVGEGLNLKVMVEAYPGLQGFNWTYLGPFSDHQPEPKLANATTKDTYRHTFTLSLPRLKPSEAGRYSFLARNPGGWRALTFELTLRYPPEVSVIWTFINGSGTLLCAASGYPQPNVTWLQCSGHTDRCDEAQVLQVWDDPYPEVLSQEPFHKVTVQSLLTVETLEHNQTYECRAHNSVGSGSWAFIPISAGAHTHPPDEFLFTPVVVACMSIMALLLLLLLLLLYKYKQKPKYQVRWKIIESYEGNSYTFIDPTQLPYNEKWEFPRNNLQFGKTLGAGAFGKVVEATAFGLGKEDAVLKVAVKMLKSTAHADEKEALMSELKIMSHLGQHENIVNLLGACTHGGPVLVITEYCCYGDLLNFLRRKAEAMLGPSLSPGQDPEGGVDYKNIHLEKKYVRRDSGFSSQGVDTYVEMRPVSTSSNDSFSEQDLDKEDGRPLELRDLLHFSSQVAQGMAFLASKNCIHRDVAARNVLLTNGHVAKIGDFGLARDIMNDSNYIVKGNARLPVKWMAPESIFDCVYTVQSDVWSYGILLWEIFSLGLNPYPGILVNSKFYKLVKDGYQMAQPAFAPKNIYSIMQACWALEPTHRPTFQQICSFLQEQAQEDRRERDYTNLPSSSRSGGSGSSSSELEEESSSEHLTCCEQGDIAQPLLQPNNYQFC

B-Raf = B-Raf (Homo sapiens, UniProt P15056); experiment: Kinase activity assay, B-Raf; assay type: biochemical; conditions: read-out: activity toward kinase B-Raf, IC50
Sequence of B-Raf (P15056 whole entry): as the sequence (P15056 whole entry V600E) above, with E600V counted along it

Src = Src (Homo sapiens, UniProt P12931); experiment: Kinase activity assay, Src
Sequence of Src (P12931 whole entry): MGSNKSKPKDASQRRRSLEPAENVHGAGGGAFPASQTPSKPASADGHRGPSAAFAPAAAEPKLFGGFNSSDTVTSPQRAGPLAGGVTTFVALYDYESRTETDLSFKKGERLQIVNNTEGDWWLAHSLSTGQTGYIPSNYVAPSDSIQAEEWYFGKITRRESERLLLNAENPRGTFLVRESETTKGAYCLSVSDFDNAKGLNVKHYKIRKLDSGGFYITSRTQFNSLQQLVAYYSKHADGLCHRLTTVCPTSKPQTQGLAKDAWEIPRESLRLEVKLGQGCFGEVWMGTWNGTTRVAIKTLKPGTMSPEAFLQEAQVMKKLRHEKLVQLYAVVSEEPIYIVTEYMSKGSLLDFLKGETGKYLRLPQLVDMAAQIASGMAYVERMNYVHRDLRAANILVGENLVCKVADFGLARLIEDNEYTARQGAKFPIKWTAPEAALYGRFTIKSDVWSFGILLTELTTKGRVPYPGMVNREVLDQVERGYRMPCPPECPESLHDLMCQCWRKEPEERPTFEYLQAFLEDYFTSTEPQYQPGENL

Measured: IC50

Sequence of Kit (P10721 26-976): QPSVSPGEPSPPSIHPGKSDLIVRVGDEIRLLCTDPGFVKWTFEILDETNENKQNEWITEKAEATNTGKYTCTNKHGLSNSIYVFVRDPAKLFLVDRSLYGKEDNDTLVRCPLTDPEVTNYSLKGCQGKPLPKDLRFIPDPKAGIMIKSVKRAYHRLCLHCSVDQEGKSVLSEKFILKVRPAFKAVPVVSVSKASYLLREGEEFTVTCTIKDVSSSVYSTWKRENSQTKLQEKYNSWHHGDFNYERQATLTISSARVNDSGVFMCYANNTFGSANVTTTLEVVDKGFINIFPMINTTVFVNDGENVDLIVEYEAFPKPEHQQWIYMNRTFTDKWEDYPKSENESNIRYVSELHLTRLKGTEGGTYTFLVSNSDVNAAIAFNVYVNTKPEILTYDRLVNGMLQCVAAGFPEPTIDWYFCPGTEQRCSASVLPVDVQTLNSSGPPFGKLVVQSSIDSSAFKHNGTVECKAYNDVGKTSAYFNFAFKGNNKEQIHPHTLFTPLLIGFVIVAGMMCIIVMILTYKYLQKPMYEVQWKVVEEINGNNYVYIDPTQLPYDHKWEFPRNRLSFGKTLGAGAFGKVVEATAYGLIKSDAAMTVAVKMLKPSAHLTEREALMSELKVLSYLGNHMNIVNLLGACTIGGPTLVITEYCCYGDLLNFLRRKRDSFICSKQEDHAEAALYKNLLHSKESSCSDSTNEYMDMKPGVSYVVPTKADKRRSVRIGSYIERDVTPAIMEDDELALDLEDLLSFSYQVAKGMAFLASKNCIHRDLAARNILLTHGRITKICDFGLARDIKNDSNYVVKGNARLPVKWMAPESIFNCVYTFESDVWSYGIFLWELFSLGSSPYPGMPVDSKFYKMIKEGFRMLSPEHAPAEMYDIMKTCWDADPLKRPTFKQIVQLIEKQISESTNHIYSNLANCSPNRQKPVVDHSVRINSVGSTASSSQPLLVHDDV
Sequence of Kdr (P35968 20-1356): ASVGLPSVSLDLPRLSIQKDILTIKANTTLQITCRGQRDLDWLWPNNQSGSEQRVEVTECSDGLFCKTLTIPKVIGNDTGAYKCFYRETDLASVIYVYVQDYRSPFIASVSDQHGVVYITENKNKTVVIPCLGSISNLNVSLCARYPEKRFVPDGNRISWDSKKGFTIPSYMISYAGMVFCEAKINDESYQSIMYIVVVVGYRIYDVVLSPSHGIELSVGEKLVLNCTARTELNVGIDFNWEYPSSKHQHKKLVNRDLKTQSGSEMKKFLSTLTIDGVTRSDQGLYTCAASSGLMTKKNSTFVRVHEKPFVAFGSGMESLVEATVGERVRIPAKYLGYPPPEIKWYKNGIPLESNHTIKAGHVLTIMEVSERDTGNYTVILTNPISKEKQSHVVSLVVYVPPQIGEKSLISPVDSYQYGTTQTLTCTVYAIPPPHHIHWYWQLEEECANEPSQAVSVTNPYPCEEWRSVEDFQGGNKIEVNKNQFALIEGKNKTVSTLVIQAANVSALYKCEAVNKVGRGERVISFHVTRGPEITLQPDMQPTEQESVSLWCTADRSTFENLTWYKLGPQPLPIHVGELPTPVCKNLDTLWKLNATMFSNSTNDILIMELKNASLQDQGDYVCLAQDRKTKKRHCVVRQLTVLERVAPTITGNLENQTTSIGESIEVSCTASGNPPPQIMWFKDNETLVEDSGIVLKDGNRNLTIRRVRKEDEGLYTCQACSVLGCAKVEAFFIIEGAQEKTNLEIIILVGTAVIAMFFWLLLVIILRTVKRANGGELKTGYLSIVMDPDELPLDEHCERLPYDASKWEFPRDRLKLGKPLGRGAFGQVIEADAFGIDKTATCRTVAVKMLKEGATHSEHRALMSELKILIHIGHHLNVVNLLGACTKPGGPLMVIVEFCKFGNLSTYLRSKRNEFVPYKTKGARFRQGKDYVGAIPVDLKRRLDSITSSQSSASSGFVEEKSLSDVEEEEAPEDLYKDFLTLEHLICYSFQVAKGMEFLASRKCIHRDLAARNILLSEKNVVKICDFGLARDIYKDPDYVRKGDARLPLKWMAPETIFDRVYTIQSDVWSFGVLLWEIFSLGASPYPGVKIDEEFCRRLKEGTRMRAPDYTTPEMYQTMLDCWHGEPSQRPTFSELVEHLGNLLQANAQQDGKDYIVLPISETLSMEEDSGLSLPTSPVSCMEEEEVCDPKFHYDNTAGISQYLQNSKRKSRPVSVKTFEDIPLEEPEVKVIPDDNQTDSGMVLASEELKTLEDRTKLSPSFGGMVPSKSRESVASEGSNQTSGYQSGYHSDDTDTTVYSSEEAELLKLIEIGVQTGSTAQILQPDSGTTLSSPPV

Cc1oncc1S(=O)(=O)Nc1cccc(C(=O)c2c[nH]c3ncc(C#N)cc23)c1F [P-2088, 5-Methyl-isoxazole-4-sulfonic acid [3-(5-cyano-1H-pyrrolo[2,3-b]pyridine-3-carbonyl)-2-fluoro-phenyl]-amide]
not listed: B-Raf | Src
≤ 10 µM: all other assays above

Cn1cc(-c2cnc3[nH]cc(C(=O)c4cc(NS(=O)(=O)c5ccc(C(F)(F)F)cc5)ccc4F)c3c2)cn1 [P-2104, N-{4-Fluoro-3-[5-(1-methyl-1H-pyrazol-4-yl)-1H-pyrrolo[2,3-b]pyridine-3-carbonyl]-phenyl}-4-trifluoromethyl-benzenesulfonamide]
not listed: C-Raf
≤ 10 µM: all other assays above

CCCS(=O)(=O)Nc1ccc(F)c(C(=O)c2c[nH]c3ncc(-c4ncc(C)n4C)cc23)c1F [P-2152, Propane-1-sulfonic acid {3-[5-(1,5-dimethyl-1H-imidazol-2-yl)-1H-pyrrolo[2,3-b]pyridine-3-carbonyl]-2,4-difluoro-phenyl}-amide]
not listed: C-Raf | Src
≤ 10 µM: all other assays above

CCCS(=O)(=O)Nc1ccc(F)c(C(=O)c2c[nH]c3ncc(-c4nccn4C)cc23)c1F [P-2153, Propane-1-sulfonic acid {2,4-difluoro-3-[5-(1-methyl-1H-imidazol-2-yl)-1H-pyrrolo[2,3-b]pyridine-3-carbonyl]-phenyl}-amide]
not listed: C-Raf
≤ 10 µM: all other assays above

CCCS(=O)(=O)Nc1ccc(F)c(C(=O)c2c[nH]c3ncc(-c4cccnc4F)cc23)c1F [P-2164, Propane-1-sulfonic acid {2,4-difluoro-3-[5-(2-fluoro-pyridin-3-yl)-1H-pyrrolo[2,3-b]pyridine-3-carbonyl]-phenyl}-amide]
not listed: C-Raf | B-Raf
≤ 10 µM: all other assays above

CCCS(=O)(=O)Nc1ccc(F)c(C(=O)c2c[nH]c3ncc(-c4cccc(NS(C)(=O)=O)c4)cc23)c1F [P-2169, Propane-1-sulfonic acid {2,4-difluoro-3-[5-(3-methanesulfonylamino-phenyl)-1H-pyrrolo[2,3-b]pyridine-3-carbonyl]-phenyl}-amide]
not listed: C-Raf | B-Raf
≤ 10 µM: all other assays above

CCCS(=O)(=O)Nc1ccc(F)c(C(=O)c2c[nH]c3ncc(-c4ccc(S(C)(=O)=O)cc4)cc23)c1F [P-2183, Propane-1-sulfonic acid {2,4-difluoro-3-[5-(4-methanesulfonyl-phenyl)-1H-pyrrolo[2,3-b]pyridine-3-carbonyl]-phenyl}-amide]
not listed: C-Raf | Src
≤ 10 µM: all other assays above

CC(C)CS(=O)(=O)Nc1ccc(F)c(C(=O)c2c[nH]c3ncc(Br)cc23)c1F [P-2296, 2-Methyl-propane-1-sulfonic acid [3-(5-bromo-1H-pyrrolo[2,3-b]pyridine-3-carbonyl)-2,4-difluoro-phenyl]-amide]
not listed: C-Raf | B-Raf
≤ 10 µM: all other assays above

CCCS(=O)(=O)Nc1cccc(C(=O)c2c[nH]c3ncc(C(=O)OCC)cc23)c1F [P-2406, 3-[2-Fluoro-3-(propane-1-sulfonylamino)-benzoyl]-1H-pyrrolo[2,3-b]pyridine-5-carboxylic acid ethyl ester]
not listed: C-Raf | Src
≤ 10 µM: all other assays above
